Article PMC3205148 (International Journal of Nanomedicine, 2011)
≈ marks a conversion by molar mass, not a printed value.

What was measured:
[1] = test system: OVCAR-3; details: day 300, OVCAR-3-bearing SCID mice; cited from earlier work
[2] = Solubility in Miglyol 812; assay type: physicochemical; details: Miglyol 812, oil or lipid

| solubility [2] [mg/mL] | Compound | Survival [1] [%] |
| --- | --- | --- |
|  | CCCCCCCCCCCCCCC(Br)C(=O)O[C@@H](C(=O)O[C@H]1C[C@@]2(O)[C@@H](OC(=O)c3ccccc3)[C@@H]3[C@]4(OC(C)=O)CO[C@@H]4C[C@H](O)[C@@]3(C)C(=O)[C@H](O)C(=C1C)C2(C)C)[C@@H](NC(=O)OC(C)(C)C)c1ccccc1 (some centres unmarked) [2′-(2-bromo)-hexadecanoyl DX] | 100 |
| 36.11 ± 0.1 (≈ 44.7 mM) | CC(=O)O[C@@]12CO[C@@H]1C[C@H](O)[C@@]1(C)C(=O)[C@H](O)C3=C(C)[C@@H](OC(=O)[C@H](O)[C@@H](NC(=O)OC(C)(C)C)c4ccccc4)C[C@@](O)([C@@H](OC(=O)c4ccccc4)[C@H]21)C3(C)C [DX, Docetaxel] |  |
